# Data reported in EP2600854B1, “PHENETHYL, PHENETHYLENE, PHENETHYNE AND INDANONE DERIVATES IN COSMETIC FORMULATIONS, ESPECIALLY FOR USE IN SKIN AGEING PROCESSES” (Merck Patent GmbH, priority 2010, dated 2012).
# Where two headings read alike, the source gives them in different places.
# Assays:
# [1] = In-situ generation of 4a from 1a under sun-simulated radiation (Suntester), HPLC analysis; assay type: physicochemical; settings: 5mg 1a in 10 mL Ethanol
# Procedure: 5mg der Substanz 1 a werden in 10 mL Ethanol gelöst. Mit der Lösung wird ein NMR-Röhrchen vollständig befüllt, verschlossen und für 4 Stunden im Suntester sonnensimulierter Strahlung ausgesetzt (Atlas CPS+ Suntester, 765 Wm^-2). Nach Bestrahlung wird die Lösung per HPLC untersucht. Im Dunkelexperiment ist die Substanz 4a abwesend, während im Belichtungexperiment Substanz 4a zu 2% bei der Detektionswellenlänge von 272nm nachgewiesen wird.
# [2] = Solubility comparison in the cosmetic oil isopropyl myristate; assay type: physicochemical; settings: for solubility: isopropyl myristate, organic solvent or mixture, Isopropylmyristat, read-out: Löslichkeiten
# Procedure: Im Parallelversuch werden 20mg der Substanz 4a mit zunächst 800µL Isopropylmyristat versetzt. […] Daraus errechnen sich Löslichkeiten für 1 a von mindestens 2,5% bzw. für 4a von maximal 1,0% bezogen auf das eingesetzte Volumen Öl. Im anschließenden Verifizierungsexperiment bei Raumtemperatur von 23°C ergeben sich Löslichkeiten von 2,4% für 1 a sowie 0,4% für 4a.
# [3] = 30°C, bezogen auf das eingesetzte Volumen Öl, calculated from 20mg in 800µL (1a) or 800µL + 1200µL (4a)
# [4] = Verifizierungsexperiment bei Raumtemperatur von 23°C
SMILES,"Substanz 4a nachgewiesen (HPLC) im Belichtungexperiment ([1]; 4 Stunden sonnensimulierte Strahlung (Atlas CPS+ Suntester, 765 Wm^-2), Detektionswellenlänge 272nm) [%]",Substanz 4a (HPLC) im Dunkelexperiment ([1]; no irradiation),"Dissolution of 20mg in 800µL Isopropylmyristat ([2]; 20mg, 30°C)","solubility [2, 3] [mg/mL]","solubility [2, 4] [mg/mL]","Dissolution of 20mg after addition of further 1200µL Isopropylmyristat ([2]; 20mg, 800µL + 1200µL Isopropylmyristat)"
"COc1ccc(C(=O)/C=C/c2ccc(C(C)(C)C)cc2)cc1 [1a, E-3-(4-tert.-Butyl-phenyl)-1-(4-methoxy-phenyl)-propenon]",2,abwesend,vollständig gelöst,≥ 25,24,
"COc1ccc2c(c1)C(c1ccc(C(C)(C)C)cc1)CC2=O (stereo not drawn) [4a, 3-(4-tert.-Butyl-phenyl)-5-methoxy-indan-1-on]",,,keine vollständige Löslichkeit,≤ 10,4,deutlicher Bodensatz in der trüben Dispersion
